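Tested at 5 concentrations; 48 h exposure; 96-well plates; endpoints linearly interpolated, else capped at highest concentration. GI50 marks 50% less growth. TGI: concentration producing complete growth inhibition.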 Where a SMILES comes first, the peptide text is derived from it.
What was measured:
Test in all cases: inhibition of tumour cell growth, NCI panel, 48 h
OVCAR-4 ovarian = tested on: OVCAR-4 ovarian
SF-295 CNS = tested on: SF-295 CNS
MOLT-4 leukemia = tested on: MOLT-4 leukemia
MCF7 breast = tested on: MCF7 breast
HCT-116 colon = tested on: HCT-116 colon
HT29 colon = tested on: HT29 colon
MDA-N = tested on: MDA-N
PC-3 prostate = tested on: PC-3 prostate
OVCAR-5 ovarian = tested on: OVCAR-5 ovarian
NCI-H226 lung = tested on: NCI-H226 lung
SK-MEL-28 melanoma = tested on: SK-MEL-28 melanoma
K-562 leukemia = tested on: K-562 leukemia
SNB-75 CNS = tested on: SNB-75 CNS
HOP-62 NSCLC = tested on: HOP-62 NSCLC

| Structure (SMILES) | TGI (OVCAR-4 ovarian) [µM] | TGI (SF-295 CNS) [µM] | TGI (MOLT-4 leukemia) [µM] | TGI (MCF7 breast) [µM] | TGI (HCT-116 colon) [µM] | TGI (HT29 colon) [µM] | TGI (MDA-N) [µM] | TGI (PC-3 prostate) [µM] | TGI (OVCAR-5 ovarian) [µM] | TGI (NCI-H226 lung) [µM] | TGI (SK-MEL-28 melanoma) [µM] | TGI (K-562 leukemia) [µM] | TGI (SNB-75 CNS) [µM] | TGI (HOP-62 NSCLC) [µM] | GI50 (K-562 leukemia) [µM] |
| --- | --- | --- | --- | --- | --- | --- | --- | --- | --- | --- | --- | --- | --- | --- | --- |
| CCC(C)C(NC(=O)C(CCCCN)NC(=O)C(NC(=O)C(CCC(N)=O)NC(=O)C(N)CCCNC(=N)N)C(C)CC)C(=O)NC(Cc1c[nH]c2ccccc12)C(=O)NC(Cc1ccccc1)C(=O)NC(CCC(N)=O)C(=O)NC(CC(N)=O)C(=O)NC(CCCNC(=N)N)C(=O)NC(CCCNC(=N)N)C(=O)NC(CCSC)C(=O)NC(CCCCN)C(=O)NC(Cc1c[nH]c2ccccc12)C(=O)NC(CCCCN)C(=O)NC(CCCCN)C(=O)N1CCCC1C(=O)NC(C)C(=O)NC(CCCCN)C(=O)NC(CCCNC(=N)N)C(=O)NC(CCCCN)C(=O)NC(CC(C)C)C(=O)NC(Cc1ccccc1)C(=O)NCC(=O)O (stereo unspecified) (H-RQIKIWFQNRRMKWKKPAKRKLFG-OH; configuration not given here) | > 25 | > 25 | > 25 | > 25 | > 25 | > 25 | > 25 | > 25 | > 25 | > 25 | > 25 | > 25 | > 25 | > 25 |  |
| NS(=O)(=O)c1ccc(-n2c(-c3cccs3)nc3ccc(I)cc3c2=O)cc1 | 86.3 | 75.8 | > 100 | 65.4 | 31 | 94.1 | > 100 | 81.9 | 59.9 | 87.3 | 55.5 | > 100 | 87.4 | 84.2 | 37.2 |
| CCOC(=O)CC1c2ccc(O)cc2OC(=O)C1c1ccc([N+](=O)[O-])cc1 (stereo unspecified) | 92.3 | > 100 | 78.6 | 40.9 | 82.3 | > 100 | 93.5 | 67.2 | > 100 | 58.4 | > 100 | > 100 | 56 | 68.2 |  |
| CN(C)C1=Nc2ccccc2C(=S)N2CSCC12 (stereo unspecified) | > 100 | > 100 | 54.1 | > 100 | > 100 | > 100 | > 100 | > 100 | > 100 | > 100 | > 100 | > 100 | > 100 | > 100 |  |
| C=CCNC1=C2C[C@@H](C)C[C@@H](OC)[C@@H](OC(=O)CCCN)[C@H](C)/C=C(\C)[C@@H](OC(N)=O)[C@H](OC)/C=C\C=C(/C)C(=O)NC(=CC1=O)C2=O | 48.4 | 31.6 | 40.2 | 19.4 | 52.9 | 21.4 | 28.4 | 29.1 | 31.8 | 36.3 | 41.9 | > 100 | 22.2 | 18.9 |  |
| COc1ccc(CCNC2=CC(=O)c3ncccc3C2=O)cc1OC | 16.7 | 2.21 | 23.7 | 3.01 | 10.2 | 4.73 | 2.45 | 23.4 | 6.63 | 3.19 | 2.69 | 8.28 | 2.13 | 7.9 |  |
| O=C(O)c1ccc(NNc2cc(=O)[nH]c(=O)[nH]2)cc1 | > 100 | > 100 | > 100 | > 100 | > 100 | > 100 | > 100 | 83.7 | > 100 | > 100 | > 100 | > 100 | > 100 | > 100 |  |
| COc1ccc2c(c1)CCc1c-2[nH]c2ccc(OC)cc12 | > 100 | > 100 | > 100 | > 100 | > 100 | > 100 | > 100 | > 100 | > 100 | > 100 | > 100 | > 100 | > 100 | > 100 |  |
| N#CC(NNC(=O)Cc1ccccc1)c1ccccc1O (stereo unspecified) | > 100 | > 100 | > 100 | > 89.5 | > 100 | > 92.6 | > 100 | > 100 | > 90.9 | 68 | > 100 | > 100 | 85.6 | > 70.6 |  |
| CC1=C(C(N)=O)C(c2ccncc2)C(C#N)=C2SCC(=O)N12 (stereo unspecified) | > 100 | > 100 | > 100 | > 100 | > 100 | > 100 | > 100 | > 100 | > 100 | > 100 | > 100 | > 100 | > 100 | > 100 |  |
| CN(Nc1cc(=O)[nH]c(=O)[nH]1)c1ccccc1 | > 100 | > 100 | > 100 | > 100 | > 100 | > 100 | > 100 | > 100 | > 100 | > 100 | > 100 | > 100 | > 100 | > 100 |  |
| CC12CCC(C(=O)OC1=O)C2(C)C (stereo unspecified) | > 100 | > 100 | > 100 | > 100 | > 100 | > 100 | > 100 | > 100 | > 100 | > 100 | > 100 | > 100 | > 100 | > 100 |  |
| CC1(C)c2ccccc2C(=O)C12CCC(=O)CC2 | > 100 | > 100 | > 100 | > 100 | > 100 | > 100 | > 100 | > 100 | > 100 | > 100 | > 100 | > 100 | > 100 | > 100 |  |
| O=C(CC(c1ccccc1)N1CCCCC1)c1ccccc1 (stereo unspecified) | 40.2 | 31.2 | 3.92 | 15.4 | 19.9 | 29.5 | 27.3 | 29.4 | 32.9 | 37.4 | 32.4 | 8.6 | 31.4 | 33.9 |  |
| COc1cc(/C=C2\C[C@H]3[C@@H]4CC=C5C[C@@H](O)CC[C@]5(C)[C@H]4CC[C@]3(C)C2=O)cc(OC)c1OC | 96.6 | 52.7 | 68.4 | > 100 | 47.3 | 47.7 | 87.1 | > 100 | > 100 | > 100 | > 100 | > 100 | 96.3 | > 100 |  |

Reference: PubChem BioAssay (NCI)
